What was measured:
[1] = biological target: D2 receptor (Homo sapiens, UniProt P14416); design: method as in previously published data; details: at 10 µM, functional and binding studies; ref previously published data; cited from earlier work
[2] = test system: adult human volunteers; design: method as in Wilbraham et al. [2021]; details: clinical studies; ref Wilbraham et al. [2021]; cited from earlier work
[3] = test system: rhesus monkeys; assay: Spontaneous eye blink rate, cumulative dosing; type: in vivo, rhesus monkey
From the text: Eleven 5–6-year-old, male rhesus monkeys (Chengdu Ping, An Animal Breeding and Research Base, Sichuan Province, China) with an average weight of 4.83 kg were included in the study. The animals were randomly divided into three groups, DPTQ higher cumulative dose group (n = 4); DPTQ lower cumulative dose group (n = 3); and vehicle (20% Captisol (CyDex Pharmaceuticals, Inc., KS) in NaPO4 buffer) group (n = 4). The D1 agonist SKF82958 was included as a positive control; the results for this compound (not shown here) were recently published together with data for a different D1PAM (DETQ, see Bruns et al. [2018]). The D1 selective antagonist SCH39166 hydrobromide (Cat No.: 2299, Batch No.: 3A/129719) was purchased from Tocris, MN, and was prepared in Millipore pure water with the injection volume 0.2 ml/kg. The D1 antagonist was dosed 15 min before vehicle or DPTQ (n = 4 animals per group).
Spontaneous eye blinking rate was measured during observational experiments conducted in a specially constructed monkey chair (Mason et al. [2019]). A U-shaped neck plate that helped to fixate the orientation of the head was used to facilitate observation of eye blink rate response. A compact video camera (Panasonic/wv-cp480/CH) on a tripod was positioned in front of the seated monkey. Two camera images were combined by video collector (Color QUAD system) and transferred to the EthoVision software (Noldus, Leesburg, VA) on the computer for on-line viewing and recording.
Two weeks before testing, monkeys were trained daily to sit in the monkey chair for two 2-h periods with food reward. During post-training test sessions conducted between 9:00 am and 4:30 pm every day, each monkey was studied for nine consecutive 15-min components. Each 15-min block consisted of a 10-min habituation period followed by a 5-min period during which eye blinking was counted. […] Observers blind to the treatment conditions later scored each 5-min videotaped session. An eye blink was defined as a visible, rapid opening and closing of the eyelid. Two observers independently confirmed the measurement with reliability > 90%.
The effects of different D1 ligands on spontaneous eye blink rate were studied by a cumulative dosing procedure (Jutikiewicz and Bergman 2004). Active compound or vehicle (Captisol 20% w/v NaPO4 buffer) was administered after obtaining two baseline eye blink recordings. The ligand was given in random order to different monkeys of each group as described above. To study dose response and time course, incremental doses of DPTQ were administrated at the end of 15-min components of each test session.
DPTQ (free base, see Hao et al. [2019]) was supplied by Eli Lilly Company. Captisol (Lot No.: NC-04A-05034) was prepared as follows: Captisol 20% w/v NaPO4 buffer 25 mM, pH 8. The injection volume for DPTQ was 0.5 ml/kg IM. DPTQ at 0.1 mg/kg, 0.5 mg/kg, and 1 mg/kg were dosed as clear solution, while the 5 mg/kg and 10 mg/kg doses were formulated as fine suspensions. The above vehicle solution was stored at 4℃ in a refrigerator and restored to room temperature before use. When preparing DPTQ fresh daily, a portion of the vehicle (20% Captisol) was added to the compound and stirred to wet, followed by addition of the remainder of the vehicle and mixing until the solution became homogeneous. The suspension was then sonicated on an ice bath for 40 min to reduce particle size. Animals were dosed while in the chair.
Results for each monkey were expressed as the rate of eye blinking (blinks per minute) averaged over each 5-min testing epoch. The effects of vehicle and D1 PAM on eye blinking were averaged for each group of monkeys and expressed as mean ± SE. The effects of DPTQ and vehicle were analyzed with two-way ANOVA (D1 PAM and time) followed by Bonferroni post hoc test (GraphPad Prism, San Diego CA).

[4] = test system: rhesus monkeys; design: method as in Bruns et al., [2018]; details: smaller response than SKF82958; ref Bruns et al., [2018]; cited from earlier work
[5] = test system: pCREB and the AMPA receptor pGluR1; design: method as in Bruns et al. [2018]; details: hD1 mouse; similar to SKF82958; ref Bruns et al. [2018]; cited from earlier work

Chain of D2 receptor (P14416 whole entry): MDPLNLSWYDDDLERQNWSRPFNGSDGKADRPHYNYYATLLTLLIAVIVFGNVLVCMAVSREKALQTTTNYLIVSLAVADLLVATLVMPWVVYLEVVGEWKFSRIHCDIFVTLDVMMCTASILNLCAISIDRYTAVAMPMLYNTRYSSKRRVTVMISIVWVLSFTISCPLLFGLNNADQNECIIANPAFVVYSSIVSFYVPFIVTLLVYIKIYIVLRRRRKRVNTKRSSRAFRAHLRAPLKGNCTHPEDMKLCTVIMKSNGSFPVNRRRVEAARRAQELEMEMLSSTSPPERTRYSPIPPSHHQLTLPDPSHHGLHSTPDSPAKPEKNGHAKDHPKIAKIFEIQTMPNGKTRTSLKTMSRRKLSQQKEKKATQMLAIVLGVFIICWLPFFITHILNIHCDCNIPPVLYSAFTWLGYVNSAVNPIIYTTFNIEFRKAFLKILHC

Row | Compound | Activity at the D2 receptor [1] | Oral movement with tongue protrusion [2] | Duration of eye blink reduction/sedation ([3]; 0.03 mg/kg IM alone) | Spontaneous eye blink rate, antagonist alone ([3]; 0.03 mg/kg IM alone) | Visual observation of sedation ([3]; 0.03 mg/kg IM alone) | Effect on DPTQ-induced increase in spontaneous eye blink rate ([3]; SCH39166 pretreatment, high cumulative doses of DPTQ, n = 4/group) | Spontaneous eye blink rate [4] | Brain levels of pCREB and pGluR1 [5]
1 | C[C@H]1c2cccc(CCC(C)(C)O)c2C[C@H](CO)N1C(=O)Cc1c(Cl)cccc1Cl [mevidalen, 2-(2,6-dichlorophenyl)-1-((1S,3R)-5-(3-hydroxy-3-methylbutyl)-3-(hydroxymethyl)-1-methyl-3,4-dihydroisoquinolin-2(1H)-yl)ethan-1-one] | no activity | not reported |  |  |  |  |  | 
2 | CN1CCc2cc(Cl)c(O)cc2[C@H]2c3ccccc3CC[C@@H]21 [SCH39166, reference compound] |  |  | about 15 min | brief reduction in eye blink rate | slightly sedated | blocks |  | 
3 | C[C@H]1c2cccc(C(C)(C)O)c2C[C@H](CO)N1C(=O)Cc1c(Cl)cccc1Cl [DETQ] | no activity |  |  |  |  |  | enhanced spontaneous eye blink rate | enhances
